In ChEMBL document CHEMBL1201862, “PubChem BioAssay data set” (2004):
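Grown in 96-well plates, cells were treated for 48 hours with each compound at five concentrations. Insufficient inhibition: endpoint recorded as highest concentration tested. GI50 marks 50% less growth.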 Active and inactive are the calls of the source. No stated cut-off is given here; in the data, active = GI50 up to about 1.1 µM and inactive = higher.

Experiments:
Test in all cases: growth of human tumour cells (NCI), 48 h
[1] = tested on: 786-0
[2] = tested on: A498
[3] = tested on: A549
[4] = tested on: ACHN
[5] = tested on: BT-549
[6] = tested on: CAKI-1
[7] = tested on: COLO 205
[8] = tested on: DU-145
[9] = tested on: EKVX
[10] = tested on: HCC 2998
[11] = tested on: HCT-116
[12] = tested on: HCT-15
[13] = tested on: HOP-62
[14] = tested on: HOP-92
[15] = tested on: HT-29
[16] = tested on: Hs-578T
[17] = tested on: IGROV-1
[18] = tested on: K562
[19] = tested on: KM12
[20] = tested on: LOX IMVI
[21] = tested on: M14
[22] = tested on: MCF7
[23] = tested on: MDA-MB-231
[24] = tested on: MDA-MB-435
[25] = tested on: MDA-N
[26] = tested on: Malme-3M
[27] = tested on: NCI-H226
[28] = tested on: NCI-H23
[29] = tested on: NCI-H460
[30] = tested on: NCI-H522
[31] = tested on: NCI/ADR-RES
[32] = tested on: OVCAR-3
[33] = tested on: OVCAR-4
[34] = tested on: OVCAR-5
[35] = tested on: OVCAR-8
[36] = tested on: PC-3
[37] = tested on: RPMI-8226
[38] = tested on: RXF 393
[39] = tested on: SF-268
[40] = tested on: SF-295
[41] = tested on: SF-539
[42] = tested on: SK-MEL-28
[43] = tested on: SK-MEL-2
[44] = tested on: SK-MEL-5
[45] = tested on: SK-OV-3
[46] = tested on: SN12C
[47] = tested on: SNB-19
[48] = tested on: SNB-75
[49] = tested on: SR
[50] = tested on: SW-620
[51] = tested on: T47D
[52] = tested on: TK-10
[53] = tested on: U-251
[54] = tested on: UACC-257
[55] = tested on: UACC-62
[56] = tested on: UO-31
[57] = tested on: CCRF-CEM
[58] = tested on: HL-60
[59] = tested on: MOLT-4

NCCSCCc1ccccc1
GI50 [1]: > 100 µM (inactive)
GI50 [2]: > 100 µM (inactive)
GI50 [3]: > 100 µM (inactive)
GI50 [4]: > 100 µM (inactive)
GI50 [5]: > 100 µM (inactive)
GI50 [6]: > 100 µM (inactive)
GI50 [7]: > 100 µM (inactive)
GI50 [8]: > 100 µM (inactive)
GI50 [9]: > 100 µM (inactive)
GI50 [10]: > 100 µM (inactive)
GI50 [11]: > 100 µM (inactive)
GI50 [12]: > 100 µM
GI50 [13]: > 100 µM (inactive)
GI50 [14]: 72.1 µM (inactive)
GI50 [15]: > 100 µM (inactive)
GI50 [16]: > 100 µM (inactive)
GI50 [17]: > 100 µM (inactive)
GI50 [18]: > 100 µM (inactive)
GI50 [19]: > 100 µM (inactive)
GI50 [20]: > 100 µM (inactive)
GI50 [21]: > 100 µM (inactive)
GI50 [22]: > 100 µM (inactive)
GI50 [23]: > 100 µM (inactive)
GI50 [24]: > 100 µM (inactive)
GI50 [25]: > 100 µM (inactive)
GI50 [26]: > 100 µM (inactive)
GI50 [27]: > 100 µM (inactive)
GI50 [28]: > 100 µM (inactive)
GI50 [29]: > 100 µM (inactive)
GI50 [30]: 58.6 µM (inactive)
GI50 [31]: > 100 µM (inactive)
GI50 [32]: 68.2 µM (inactive)
GI50 [33]: > 100 µM (inactive)
GI50 [34]: > 100 µM (inactive)
GI50 [35]: > 100 µM (inactive)
GI50 [36]: > 100 µM (inactive)
GI50 [37]: 44 µM (inactive)
GI50 [38]: > 100 µM (inactive)
GI50 [39]: > 100 µM (inactive)
GI50 [40]: > 100 µM (inactive)
GI50 [41]: > 100 µM (inactive)
GI50 [42]: > 100 µM (inactive)
GI50 [43]: > 100 µM (inactive)
GI50 [44]: > 100 µM (inactive)
GI50 [45]: > 100 µM (inactive)
GI50 [46]: > 100 µM (inactive)
GI50 [47]: > 100 µM (inactive)
GI50 [48]: > 100 µM (inactive)
GI50 [49]: 88.3 µM (inactive)
GI50 [50]: > 100 µM (inactive)
GI50 [51]: 55.1 µM (inactive)
GI50 [52]: > 100 µM (inactive)
GI50 [53]: > 100 µM (inactive)
GI50 [54]: > 100 µM (inactive)
GI50 [55]: > 100 µM (inactive)
GI50 [56]: > 100 µM (inactive)

O=C1CSC(c2ccc(Cl)cc2)N1c1ccc(-c2ccc(-n3c(-c4ccccc4)nc4ccccc4c3=O)cc2)cc1 (stereo not drawn)
GI50 [1]: 27.4 µM (inactive)
GI50 [2]: 51.2 µM (inactive)
GI50 [3]: 37.5 µM (inactive)
GI50 [4]: 58.6 µM (inactive)
GI50 [5]: 19 µM (inactive)
GI50 [6]: 29.4 µM (inactive)
GI50 [57]: 30.6 µM (inactive)
GI50 [7]: 27.8 µM (inactive)
GI50 [8]: 49.1 µM (inactive)
GI50 [9]: 56.9 µM (inactive)
GI50 [10]: 93.5 µM (inactive)
GI50 [11]: 24.8 µM (inactive)
GI50 [12]: 33.2 µM
GI50 [58]: > 100 µM (inactive)
GI50 [13]: 61.4 µM (inactive)
GI50 [14]: 11.4 µM (inactive)
GI50 [15]: 15.2 µM (inactive)
GI50 [16]: 28.8 µM (inactive)
GI50 [17]: 19 µM (inactive)
GI50 [18]: 37.2 µM (inactive)
GI50 [19]: 26.2 µM (inactive)
GI50 [20]: 17.7 µM (inactive)
GI50 [21]: 43.6 µM (inactive)
GI50 [22]: 30.7 µM (inactive)
GI50 [23]: 38.8 µM (inactive)
GI50 [24]: 27.4 µM (inactive)
GI50 [25]: 32.1 µM (inactive)
GI50 [59]: 17.7 µM (inactive)
GI50 [26]: 28.4 µM (inactive)
GI50 [28]: 34.1 µM (inactive)
GI50 [29]: 67.1 µM (inactive)
GI50 [30]: 25.2 µM (inactive)
GI50 [31]: 20 µM (inactive)
GI50 [32]: > 100 µM (inactive)
GI50 [33]: 19.3 µM (inactive)
GI50 [34]: > 10 µM (inactive)
GI50 [35]: 54.8 µM (inactive)
GI50 [36]: 26.1 µM (inactive)
GI50 [37]: 55.7 µM (inactive)
GI50 [39]: 21.6 µM (inactive)
GI50 [40]: 37.5 µM (inactive)
GI50 [41]: 24.1 µM (inactive)
GI50 [42]: 41.1 µM (inactive)
GI50 [43]: 51.5 µM (inactive)
GI50 [44]: 24.2 µM (inactive)
GI50 [45]: 31.1 µM (inactive)
GI50 [46]: 68.1 µM (inactive)
GI50 [47]: 38.5 µM (inactive)
GI50 [48]: 4 µM (inactive)
GI50 [49]: 28.2 µM (inactive)
GI50 [50]: 11.8 µM (inactive)
GI50 [51]: 13.8 µM (inactive)
GI50 [52]: 69 µM (inactive)
GI50 [53]: 21.8 µM (inactive)
GI50 [54]: > 100 µM (inactive)
GI50 [55]: 20.2 µM (inactive)
GI50 [56]: 10.6 µM (inactive)
